This is an account of results in ChEMBL document CHEMBL1201862, “PubChem BioAssay data set” (2004).

Assay [1] concerns the target Heat shock protein HSP 90-alpha (Homo sapiens, UniProt P07900). In kind it is functional, organism-based.
The target of assay [2] is T1, Adenosylmethionine-8-amino-7-oxononanoate aminotransferase (Mycobacterium tuberculosis, UniProt P9WQ81).
T1 sequence (P9WQ81 whole entry): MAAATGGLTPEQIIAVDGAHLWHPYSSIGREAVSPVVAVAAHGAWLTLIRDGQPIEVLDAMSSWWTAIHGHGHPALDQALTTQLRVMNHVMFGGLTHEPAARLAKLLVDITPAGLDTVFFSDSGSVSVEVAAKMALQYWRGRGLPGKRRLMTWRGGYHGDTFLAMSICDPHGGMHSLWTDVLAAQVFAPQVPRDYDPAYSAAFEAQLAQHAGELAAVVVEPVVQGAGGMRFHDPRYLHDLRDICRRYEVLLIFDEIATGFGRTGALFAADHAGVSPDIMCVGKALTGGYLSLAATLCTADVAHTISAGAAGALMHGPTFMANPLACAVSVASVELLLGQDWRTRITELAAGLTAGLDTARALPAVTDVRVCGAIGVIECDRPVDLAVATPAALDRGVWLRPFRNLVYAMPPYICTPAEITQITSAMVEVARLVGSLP
Briefly: Mycobacterium tuberculosis BioA enzyme inhibitor Measured in Biochemical System Using Plate Reader - 2163-02_Inhibitor_Dose_CherryPick_Activity. In kind it is functional, Mycobacterium tuberculosis UT205.

Assay [3] has as its target T2, DNA repair and recombination protein RAD54-like (Homo sapiens, UniProt Q92698).
T2 sequence (Q92698 whole entry): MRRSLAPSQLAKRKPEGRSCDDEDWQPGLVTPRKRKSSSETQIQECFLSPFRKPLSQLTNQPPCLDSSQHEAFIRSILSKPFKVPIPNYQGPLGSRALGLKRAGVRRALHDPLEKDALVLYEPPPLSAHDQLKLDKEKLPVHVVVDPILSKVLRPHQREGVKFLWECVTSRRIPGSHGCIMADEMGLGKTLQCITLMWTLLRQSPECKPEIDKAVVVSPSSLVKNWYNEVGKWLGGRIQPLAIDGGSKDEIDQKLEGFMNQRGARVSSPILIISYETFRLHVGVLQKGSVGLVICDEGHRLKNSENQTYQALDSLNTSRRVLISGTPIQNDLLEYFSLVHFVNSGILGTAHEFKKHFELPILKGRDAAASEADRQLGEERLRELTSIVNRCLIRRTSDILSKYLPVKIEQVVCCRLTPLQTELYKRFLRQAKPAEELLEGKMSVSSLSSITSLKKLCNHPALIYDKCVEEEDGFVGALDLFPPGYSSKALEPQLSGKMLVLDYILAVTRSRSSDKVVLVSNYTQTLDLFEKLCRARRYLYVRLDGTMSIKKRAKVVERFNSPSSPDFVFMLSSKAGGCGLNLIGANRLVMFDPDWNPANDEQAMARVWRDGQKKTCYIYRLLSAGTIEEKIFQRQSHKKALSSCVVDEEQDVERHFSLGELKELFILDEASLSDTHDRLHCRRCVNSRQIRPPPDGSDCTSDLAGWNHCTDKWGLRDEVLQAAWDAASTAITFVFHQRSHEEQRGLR
Briefly: inhibitors of human RAD54 branch migration, confirmation, biochemical, fluorescence, cherry-picked samples, dose series (AID 651657). In kind it is functional.

The subject of the next assay is Streptococcus. The experiment in a line: Group A Streptococcus viability loss, dose response, counter-screen for streptokinase expression inhibitor project, luminescence, BacTiterGlo (AID 1915).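 Also: potency for reduction of bacterial viability or growth.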 In kind it is functional, organism-based. (Counterscreens check selectivity or assay interference.)
Assay [4] relates to Streptococcus sp. 'group A'. The experiment in a line: growth inhibition of control SK(-) GAS strain, dose response, counter-screen for streptokinase expression inhibitor project, luminescence, kanamycin, BacTiterGlo, confirmation (AID 1900). Format: functional, organism-based.
For assay [5], the target named is T3, Zinc finger protein mex-5 (Caenorhabditis elegans, UniProt Q9XUB2).
T3 sequence (Q9XUB2 whole entry): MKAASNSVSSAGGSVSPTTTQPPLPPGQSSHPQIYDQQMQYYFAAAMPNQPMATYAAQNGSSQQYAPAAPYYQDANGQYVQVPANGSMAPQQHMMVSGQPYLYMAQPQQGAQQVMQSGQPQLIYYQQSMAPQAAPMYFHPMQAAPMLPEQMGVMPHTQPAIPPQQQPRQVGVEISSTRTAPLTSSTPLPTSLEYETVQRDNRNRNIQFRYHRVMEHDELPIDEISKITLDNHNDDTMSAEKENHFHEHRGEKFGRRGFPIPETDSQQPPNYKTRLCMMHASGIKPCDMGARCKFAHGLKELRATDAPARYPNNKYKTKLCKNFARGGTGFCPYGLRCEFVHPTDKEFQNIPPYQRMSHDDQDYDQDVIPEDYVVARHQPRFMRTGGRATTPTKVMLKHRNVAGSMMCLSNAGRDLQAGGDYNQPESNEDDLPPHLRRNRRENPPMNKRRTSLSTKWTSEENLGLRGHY
The experiment in a line: MEX-5/TCR-2 RNA interaction inhibitors, dose response, biochemical, C. elegans, fluorescence polarization (AID 1960).

The target in the next assay is Genome polyprotein (dengue virus type 2, UniProt P29990). The experiment in a line: Dengue-2 NS5 methyltransferase inhibitors, primary screen, biochemical, confirmation dose response (AID 588689). In kind it is functional.
The target in assay [6] is T4, RNA-binding protein pos-1 (Caenorhabditis elegans, UniProt G5EF15).
T4 sequence (G5EF15 whole entry): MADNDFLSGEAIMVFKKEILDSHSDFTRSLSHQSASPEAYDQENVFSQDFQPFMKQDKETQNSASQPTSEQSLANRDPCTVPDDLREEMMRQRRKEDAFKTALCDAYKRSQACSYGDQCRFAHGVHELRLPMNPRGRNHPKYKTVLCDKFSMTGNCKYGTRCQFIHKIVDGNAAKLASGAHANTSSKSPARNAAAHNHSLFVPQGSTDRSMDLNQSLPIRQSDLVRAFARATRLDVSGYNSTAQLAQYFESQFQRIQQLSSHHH
Briefly: inhibitors of POS-1/mex-3 RNA binding, dose response, biochemical, fluorescence polarization (AID 1964).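 Also: purified POS-1 fused to maltose binding protein made in E. coli; potency of compounds blocking POS-1 binding to fluorescent RNA.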 Background: In fluorescence polarisation assays a small probe gives low polarisation when free and higher when bound to something large.

Assay [7] deals with T5, Long-chain-fatty-acid--AMP ligase FadD28 (Mycobacterium tuberculosis, UniProt P9WQ59).
T5 sequence (P9WQ59 whole entry): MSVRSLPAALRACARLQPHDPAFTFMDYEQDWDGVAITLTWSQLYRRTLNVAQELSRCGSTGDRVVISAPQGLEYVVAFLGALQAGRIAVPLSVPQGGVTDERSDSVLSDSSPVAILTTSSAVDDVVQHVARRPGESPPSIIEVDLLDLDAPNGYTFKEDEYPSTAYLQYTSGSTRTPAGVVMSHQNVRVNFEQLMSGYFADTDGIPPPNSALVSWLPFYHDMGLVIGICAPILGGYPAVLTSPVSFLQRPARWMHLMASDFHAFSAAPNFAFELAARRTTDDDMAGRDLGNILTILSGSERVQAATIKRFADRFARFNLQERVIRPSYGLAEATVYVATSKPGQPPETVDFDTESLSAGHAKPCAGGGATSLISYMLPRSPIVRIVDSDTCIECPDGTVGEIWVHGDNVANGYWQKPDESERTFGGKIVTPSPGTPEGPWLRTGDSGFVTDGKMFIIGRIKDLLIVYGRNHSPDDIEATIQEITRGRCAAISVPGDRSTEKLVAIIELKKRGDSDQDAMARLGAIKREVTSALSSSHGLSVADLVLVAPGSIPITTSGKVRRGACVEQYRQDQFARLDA
Briefly: Fluorescence polarization aasay to screen for inhibitors that compete for the binding of FadD28 to a bisubstrate Measured in Biochemical System Using Plate Reader - 2147-01_Inhibitor_Dose_CherryPick_Activity. Format: functional, Mycobacterium tuberculosis H37Rv.

Assay [8] addresses T6, High affinity choline transporter 1 (Homo sapiens, UniProt Q9GZV3).
T6 sequence (Q9GZV3 whole entry): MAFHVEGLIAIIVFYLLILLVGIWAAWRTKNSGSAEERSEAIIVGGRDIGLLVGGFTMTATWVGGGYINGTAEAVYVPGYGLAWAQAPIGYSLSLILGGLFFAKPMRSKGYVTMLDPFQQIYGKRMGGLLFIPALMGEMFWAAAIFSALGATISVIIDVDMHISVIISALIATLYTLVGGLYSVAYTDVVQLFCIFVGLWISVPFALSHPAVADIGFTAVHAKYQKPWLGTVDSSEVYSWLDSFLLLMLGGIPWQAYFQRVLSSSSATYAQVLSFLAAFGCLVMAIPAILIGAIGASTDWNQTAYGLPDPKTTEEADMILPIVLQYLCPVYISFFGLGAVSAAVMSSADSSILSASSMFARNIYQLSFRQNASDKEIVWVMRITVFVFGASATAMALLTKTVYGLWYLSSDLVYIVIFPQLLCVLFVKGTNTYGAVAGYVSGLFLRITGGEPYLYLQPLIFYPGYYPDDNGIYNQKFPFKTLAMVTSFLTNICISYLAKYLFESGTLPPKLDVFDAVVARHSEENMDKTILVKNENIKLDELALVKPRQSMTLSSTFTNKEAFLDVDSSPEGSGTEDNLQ
The experiment in a line: CHT inhibitors, dose response, cell-based, 5-point CRC, membrane potential dye (AID 504840). In kind it is functional.

Assay [9] can be described thus: intracellular Trypanosoma cruzi inhibitors in host cells – cell-based, plate reader, cherry-pick samples, set 3, dose response (AID 651818).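 Also: compounds incubated with infected cells for about four days.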 Format: functional.
A short description of assay [10]: miR-122 activators in hepatoma reporter cells, dose response, cell-based, Huh7 psiCHECK-miR122, Renilla luciferase, cherry-picked (AID 651956).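 Also: huh7 hepatoma cells stably carrying a psiCHECK-2 miR-122 sensor plasmid; renilla luciferase signal reporting endogenous miR-122 activity after 48 h compound exposure.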 Format: functional.
Assay [11] has as its target T7, Fatty acid synthase (Homo sapiens, UniProt P49327). Briefly: FAS thioesterase domain inhibitors, dose response, biochemical, endpoint fluorescence intensity, uHTS hits (AID 624327).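 Also: fluorescence from hydrolysis of an O-methyl fluorescein acyl ester substrate by the enzyme.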 In kind it is functional.
In assay [12] the target is T7, Fatty acid synthase. The experiment in a line: FAS thioesterase domain inhibitors, dose response, biochemical, kinetic fluorescence intensity (AID 624326).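 Also: rate of fluorescence rise from hydrolysis of a fluorogenic O-methyl fluorescein ester substrate.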 In kind it is functional.

Activity calls are given as the source filed them. A value given as a limit tells only on which side of the number the result lay.

T7 sequence (P49327 whole entry, the tested form may be a part): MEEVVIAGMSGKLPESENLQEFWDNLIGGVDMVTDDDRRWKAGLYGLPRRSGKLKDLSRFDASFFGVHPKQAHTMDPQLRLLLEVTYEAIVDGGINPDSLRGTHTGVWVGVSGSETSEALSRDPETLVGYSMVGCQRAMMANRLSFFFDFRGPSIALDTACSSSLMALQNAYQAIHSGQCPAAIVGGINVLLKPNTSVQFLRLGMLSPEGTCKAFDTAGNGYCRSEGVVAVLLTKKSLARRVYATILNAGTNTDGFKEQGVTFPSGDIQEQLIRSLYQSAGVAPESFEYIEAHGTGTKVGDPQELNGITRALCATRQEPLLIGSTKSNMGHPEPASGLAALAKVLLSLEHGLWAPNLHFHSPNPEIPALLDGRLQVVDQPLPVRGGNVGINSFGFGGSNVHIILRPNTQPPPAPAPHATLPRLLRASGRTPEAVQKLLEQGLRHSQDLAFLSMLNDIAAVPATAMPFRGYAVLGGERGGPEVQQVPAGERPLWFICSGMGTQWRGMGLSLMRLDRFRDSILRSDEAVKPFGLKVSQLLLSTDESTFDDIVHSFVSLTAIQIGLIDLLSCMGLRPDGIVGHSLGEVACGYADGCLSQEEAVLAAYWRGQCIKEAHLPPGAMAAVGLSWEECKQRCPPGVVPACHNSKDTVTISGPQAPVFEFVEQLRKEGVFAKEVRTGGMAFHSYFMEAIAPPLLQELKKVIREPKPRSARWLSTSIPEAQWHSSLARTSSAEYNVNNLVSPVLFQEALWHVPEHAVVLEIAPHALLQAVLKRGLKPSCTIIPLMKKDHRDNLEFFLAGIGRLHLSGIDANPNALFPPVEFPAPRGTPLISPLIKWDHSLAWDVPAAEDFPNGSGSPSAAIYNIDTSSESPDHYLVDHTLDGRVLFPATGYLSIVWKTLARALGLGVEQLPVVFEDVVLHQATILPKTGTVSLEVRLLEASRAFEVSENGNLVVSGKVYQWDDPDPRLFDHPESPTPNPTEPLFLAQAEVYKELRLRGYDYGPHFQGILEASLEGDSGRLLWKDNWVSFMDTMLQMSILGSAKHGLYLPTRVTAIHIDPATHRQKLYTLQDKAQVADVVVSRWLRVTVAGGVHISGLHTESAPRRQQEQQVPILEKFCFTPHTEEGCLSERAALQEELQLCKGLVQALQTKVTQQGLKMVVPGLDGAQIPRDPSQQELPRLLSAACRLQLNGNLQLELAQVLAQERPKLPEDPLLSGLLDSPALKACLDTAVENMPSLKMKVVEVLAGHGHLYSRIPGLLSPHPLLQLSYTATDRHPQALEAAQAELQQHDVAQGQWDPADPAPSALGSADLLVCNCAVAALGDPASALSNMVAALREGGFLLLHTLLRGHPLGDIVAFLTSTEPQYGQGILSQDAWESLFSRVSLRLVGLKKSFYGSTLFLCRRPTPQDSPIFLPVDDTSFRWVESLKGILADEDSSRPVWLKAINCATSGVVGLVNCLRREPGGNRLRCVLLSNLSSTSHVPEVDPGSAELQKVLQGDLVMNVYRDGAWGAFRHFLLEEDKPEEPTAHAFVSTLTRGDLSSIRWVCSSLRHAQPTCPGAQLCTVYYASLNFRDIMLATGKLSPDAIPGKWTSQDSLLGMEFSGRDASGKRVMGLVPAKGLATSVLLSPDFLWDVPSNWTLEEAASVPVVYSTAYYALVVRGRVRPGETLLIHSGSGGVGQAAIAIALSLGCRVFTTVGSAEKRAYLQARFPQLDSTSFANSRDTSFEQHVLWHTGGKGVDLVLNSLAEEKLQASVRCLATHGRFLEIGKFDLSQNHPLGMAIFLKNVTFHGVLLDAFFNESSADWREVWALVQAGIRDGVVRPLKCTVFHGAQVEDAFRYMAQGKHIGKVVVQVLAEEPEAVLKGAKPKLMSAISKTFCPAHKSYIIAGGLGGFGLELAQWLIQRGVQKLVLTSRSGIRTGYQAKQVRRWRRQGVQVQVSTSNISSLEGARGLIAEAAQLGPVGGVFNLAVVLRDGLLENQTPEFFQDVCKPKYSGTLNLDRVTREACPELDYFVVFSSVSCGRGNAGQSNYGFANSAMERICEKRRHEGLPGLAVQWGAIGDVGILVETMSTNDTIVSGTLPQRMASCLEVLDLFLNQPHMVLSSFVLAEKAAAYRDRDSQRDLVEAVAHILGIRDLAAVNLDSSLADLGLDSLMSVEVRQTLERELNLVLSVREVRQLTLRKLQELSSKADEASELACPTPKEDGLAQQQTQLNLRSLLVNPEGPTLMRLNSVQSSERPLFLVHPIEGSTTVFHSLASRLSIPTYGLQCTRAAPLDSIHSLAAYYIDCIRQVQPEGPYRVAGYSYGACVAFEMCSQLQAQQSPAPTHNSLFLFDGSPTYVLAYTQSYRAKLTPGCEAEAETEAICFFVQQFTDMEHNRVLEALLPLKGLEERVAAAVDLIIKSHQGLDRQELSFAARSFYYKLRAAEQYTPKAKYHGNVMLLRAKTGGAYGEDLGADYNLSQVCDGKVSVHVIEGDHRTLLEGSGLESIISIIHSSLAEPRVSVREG
Chain of Genome polyprotein (P29990 2492-3391 limits assumed): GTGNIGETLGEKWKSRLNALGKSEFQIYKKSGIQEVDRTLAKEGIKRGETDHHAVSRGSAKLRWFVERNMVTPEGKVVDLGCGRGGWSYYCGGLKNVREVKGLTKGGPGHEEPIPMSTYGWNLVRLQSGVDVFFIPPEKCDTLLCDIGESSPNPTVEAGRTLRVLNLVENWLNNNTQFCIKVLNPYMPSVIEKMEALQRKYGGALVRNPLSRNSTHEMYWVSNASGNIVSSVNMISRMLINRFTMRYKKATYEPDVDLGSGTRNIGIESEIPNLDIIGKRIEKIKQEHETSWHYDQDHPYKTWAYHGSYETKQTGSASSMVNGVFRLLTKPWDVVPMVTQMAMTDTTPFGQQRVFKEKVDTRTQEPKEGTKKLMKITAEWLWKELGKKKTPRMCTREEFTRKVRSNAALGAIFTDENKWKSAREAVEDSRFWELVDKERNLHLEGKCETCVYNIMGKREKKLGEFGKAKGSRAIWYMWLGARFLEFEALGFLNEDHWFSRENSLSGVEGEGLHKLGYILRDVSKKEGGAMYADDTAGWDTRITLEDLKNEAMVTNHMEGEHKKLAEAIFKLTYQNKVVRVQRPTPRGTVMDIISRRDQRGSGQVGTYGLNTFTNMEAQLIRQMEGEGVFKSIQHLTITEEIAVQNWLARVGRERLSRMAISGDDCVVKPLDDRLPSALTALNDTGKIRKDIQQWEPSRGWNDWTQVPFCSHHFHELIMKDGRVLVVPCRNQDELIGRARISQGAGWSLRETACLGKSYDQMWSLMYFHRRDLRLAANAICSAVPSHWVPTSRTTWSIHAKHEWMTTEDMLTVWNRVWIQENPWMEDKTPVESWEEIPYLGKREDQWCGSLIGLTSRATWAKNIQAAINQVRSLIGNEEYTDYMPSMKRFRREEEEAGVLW

The term AC50 denotes the concentration at which the activity in the assay is half-maximal. Turning to `CCOC(=O)c1ccc(NC(=O)CC2C(=O)OCCN2CC)cc1` (centres undefined), in assay [1], the AC50 is 4.65 µM (active). `O=C(c1ccncc1)N1CC[C@H]2[C@H](CO)Nc3ccc(Br)cc3[C@H]21`: in assay [2], the AC50 was 18.5 µM (active).

On to `COc1ccc2nc(C)cc(Nc3ccc(C)cc3)c2c1`, for which, in assay [3], the AC50 was 19.4 µM (active). The EC50 is the midpoint of the concentration-response curve. `Cc1cc(/C=C2\SC(=S)NC2=O)c(C)n1-c1ccc(O)cc1`: the EC50 is 2.36 µM (active) in the assay on Streptococcus and 1.69 µM (active) in [4]. The AC50 in assay [1] was 15.5 µM (active). The IC50 is the midpoint of a concentration-inhibition curve. In the case of `CC1=NOC(=O)/C1=C\c1ccc2c(c1)OCO2`, the EC50 in assay [5] and in [6] was > 300 µM (not active) throughout. The IC50 on Genome polyprotein is 7.17 µM (active). Regarding `COc1ccc(C(=O)NCc2ccc(Cl)cc2)cc1S(=O)(=O)N1CCCC1`, the AC50 in assay [7] was 4.67 µM (active). Regarding `O=[N+]([O-])c1ccc(S(=O)(=O)Nc2nc(-c3ccccc3)cs2)cc1`, the IC50 in assay [8] was 4.57 µM (active); at Genome polyprotein, 59.6 µM (active). Take `C[C@@H]1CN([C@H](C)CO)C(=O)c2cccc(NS(=O)(=O)c3ccc(Cl)cc3)c2O[C@@H]1CN(C)Cc1ccc(C(=O)Nc2ccccc2N)cc1`: the AC50 in assay [9] is 9.17 µM (active).

As to `Cc1nnc(NC(=O)CSc2nc(C(C)C)nc3sc(C)c(C)c23)s1`, in assay [10], the AC50 is 34.8 µM (active). Regarding `CN1c2ccc(-c3ccccc3)cc2[C@H]2[C@H](CCN2C(=O)c2ccccc2F)[C@H]1CO`, the concentration at half-maximal activity (AC50) in assay [2] was 0.183 µM (active).

As to `C[C@@H]1CN([C@@H](C)CO)C(=O)c2cc(N(C)C)ccc2O[C@@H]1CN(C)Cc1ccc(C(=O)Nc2ccccc2N)cc1`, the AC50 in assay [9] was 3.57 µM (active). In the case of `CC(=O)c1ccc(N2CCN(S(=O)(=O)c3c(C(=O)N4CCCC4)c(C)n(C)c3C)CC2)cc1`, the AC50 in assay [2] was 11.6 µM (active). Take `CCn1cc(C(=O)NCCC2=CCCCC2)c(=O)c2cc(S(=O)(=O)N(C)C)ccc21`: the IC50 on Fatty acid synthase [11] is 4.69 µM (active); on Fatty acid synthase [12] it was 2.74 µM (active). For the compound `C[C@@H]1CN([C@H](C)CO)S(=O)(=O)c2ccc(C#CC3CC3)cc2O[C@@H]1CN(C)C(=O)c1cccc(F)c1`, the AC50 in assay [10] was 22.3 µM (active).

As to `CC(C)(C)N(Cc1ccccc1)C(=O)COC(=O)c1ccc([N+](=O)[O-])o1`, the IC50 was 16.2 µM (active) on Fatty acid synthase [11] and 12.2 µM (active) on Fatty acid synthase [12]. As to `C[C@H](CO)N1C[C@H](C)[C@H](CN(C)S(=O)(=O)c2ccc(F)cc2)Oc2c(NC(=O)CCCCCC(=O)Nc3ccccc3N)cccc2C1=O`, the AC50 in [9] was 2.58 µM (active). On to `O=C(Nc1ccc(Cc2ccncc2)cc1)c1cc([N+](=O)[O-])ccc1N1CCOCC1`, for which the IC50 was 1.53 µM (active) on Fatty acid synthase [11] and 1.24 µM (active) on Fatty acid synthase [12]. As to `COCC(=O)N(C)C[C@H]1Oc2cc(C#Cc3cccnc3)ccc2S(=O)(=O)N([C@H](C)CO)C[C@H]1C`, the AC50 in assay [10] was 3.31 µM (active). `CCOc1cc2[nH]c(=S)n(Cc3ccc(C(=O)NCCCN(CC)CC)cc3)c(=O)c2cc1OCC`: the AC50 in assay [3] is 40.1 µM (active). Consider `C[C@H]1CN([C@@H](C)CO)C(=O)Cc2cc(NC(=O)Nc3ccc(C(F)(F)F)cc3)ccc2O[C@H]1CN(C)Cc1ccc(Cl)c(Cl)c1`, for which the AC50 in assay [9] was 2.92 µM (active). Take `CC[C@H](C)/C=C(C)/C=C/C1=CC2=C(Cl)C(=O)[C@](C)(OC(C)=O)C(=O)C2=CO1` [SCLEROTIORIN]: in assay [1], the AC50 is 0.8 µM (active).
